According to ChEMBL document CHEMBL2429788, “Chiral linkers to improve selectivity of double-headed neuronal nitric oxide synthase inhibitors” (Bioorg Med Chem Lett, 2013):

Columns and labels:
Nitric oxide synthase 3 = target: T1, Nitric oxide synthase 3 (Bos taurus, UniProt P29473)
T1 sequence (P29473 whole entry): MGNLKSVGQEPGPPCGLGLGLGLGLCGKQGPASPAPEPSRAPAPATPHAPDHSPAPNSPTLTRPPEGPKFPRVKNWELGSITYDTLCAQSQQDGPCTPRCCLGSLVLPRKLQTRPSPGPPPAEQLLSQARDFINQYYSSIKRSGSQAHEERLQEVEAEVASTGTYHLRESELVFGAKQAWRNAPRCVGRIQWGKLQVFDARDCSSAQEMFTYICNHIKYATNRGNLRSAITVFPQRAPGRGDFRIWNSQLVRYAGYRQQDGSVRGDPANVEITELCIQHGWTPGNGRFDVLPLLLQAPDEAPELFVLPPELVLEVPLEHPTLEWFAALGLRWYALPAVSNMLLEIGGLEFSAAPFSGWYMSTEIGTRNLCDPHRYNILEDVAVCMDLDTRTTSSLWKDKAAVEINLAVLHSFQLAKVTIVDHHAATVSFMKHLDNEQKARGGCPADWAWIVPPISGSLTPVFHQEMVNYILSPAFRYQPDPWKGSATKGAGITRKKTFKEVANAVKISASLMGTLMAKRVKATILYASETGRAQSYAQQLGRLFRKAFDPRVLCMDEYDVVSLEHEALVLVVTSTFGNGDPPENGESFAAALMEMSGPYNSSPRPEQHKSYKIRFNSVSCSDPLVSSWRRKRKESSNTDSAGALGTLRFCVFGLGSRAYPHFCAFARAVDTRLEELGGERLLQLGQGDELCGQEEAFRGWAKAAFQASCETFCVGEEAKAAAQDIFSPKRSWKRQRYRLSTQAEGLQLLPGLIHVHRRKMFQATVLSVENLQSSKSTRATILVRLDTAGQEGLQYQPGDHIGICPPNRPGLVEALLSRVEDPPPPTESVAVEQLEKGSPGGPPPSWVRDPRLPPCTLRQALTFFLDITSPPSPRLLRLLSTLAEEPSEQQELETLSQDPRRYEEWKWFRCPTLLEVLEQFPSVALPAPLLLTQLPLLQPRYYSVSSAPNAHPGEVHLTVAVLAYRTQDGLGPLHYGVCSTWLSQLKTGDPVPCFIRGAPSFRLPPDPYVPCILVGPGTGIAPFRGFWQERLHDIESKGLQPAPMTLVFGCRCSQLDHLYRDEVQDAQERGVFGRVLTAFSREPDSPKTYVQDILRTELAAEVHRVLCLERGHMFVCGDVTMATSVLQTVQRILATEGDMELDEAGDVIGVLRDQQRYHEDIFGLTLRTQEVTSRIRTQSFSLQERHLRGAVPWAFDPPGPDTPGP
Description: Inhibition of bovine recombinant eNOS expressed in Escherichia coli using L-arginine as substrate up to 180 seconds by hemoglobin capture assay

[1] = target: T2, Nitric oxide synthase, inducible (Mus musculus, UniProt P29477)
T2 sequence (P29477 whole entry): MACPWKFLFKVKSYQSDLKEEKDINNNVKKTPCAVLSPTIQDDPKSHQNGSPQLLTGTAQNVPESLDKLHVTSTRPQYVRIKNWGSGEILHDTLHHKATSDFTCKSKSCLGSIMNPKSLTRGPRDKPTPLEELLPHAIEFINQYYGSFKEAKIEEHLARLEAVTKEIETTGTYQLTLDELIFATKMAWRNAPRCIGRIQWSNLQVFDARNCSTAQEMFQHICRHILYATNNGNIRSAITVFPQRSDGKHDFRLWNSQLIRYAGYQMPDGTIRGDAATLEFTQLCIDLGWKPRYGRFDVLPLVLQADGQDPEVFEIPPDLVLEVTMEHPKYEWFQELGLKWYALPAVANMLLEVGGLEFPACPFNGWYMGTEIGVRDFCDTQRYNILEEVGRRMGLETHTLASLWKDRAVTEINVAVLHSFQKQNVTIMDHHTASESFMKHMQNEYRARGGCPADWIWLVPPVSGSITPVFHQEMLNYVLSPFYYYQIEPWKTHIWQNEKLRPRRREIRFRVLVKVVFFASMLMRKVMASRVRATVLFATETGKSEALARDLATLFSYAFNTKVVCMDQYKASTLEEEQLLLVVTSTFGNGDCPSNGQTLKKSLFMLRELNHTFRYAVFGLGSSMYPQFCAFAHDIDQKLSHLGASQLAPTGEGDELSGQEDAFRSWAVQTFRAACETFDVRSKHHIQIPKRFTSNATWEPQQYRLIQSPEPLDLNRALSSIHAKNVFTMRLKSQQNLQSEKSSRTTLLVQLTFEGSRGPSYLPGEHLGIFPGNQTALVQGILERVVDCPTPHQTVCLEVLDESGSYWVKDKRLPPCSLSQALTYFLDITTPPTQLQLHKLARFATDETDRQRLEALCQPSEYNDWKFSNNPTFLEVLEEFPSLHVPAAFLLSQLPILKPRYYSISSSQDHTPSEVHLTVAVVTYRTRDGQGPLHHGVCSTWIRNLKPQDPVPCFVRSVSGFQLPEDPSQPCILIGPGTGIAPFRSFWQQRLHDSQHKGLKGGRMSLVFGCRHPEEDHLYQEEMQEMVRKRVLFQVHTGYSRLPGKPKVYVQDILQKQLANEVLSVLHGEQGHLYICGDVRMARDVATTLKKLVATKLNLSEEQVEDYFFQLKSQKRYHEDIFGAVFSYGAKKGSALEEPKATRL
Description: Inhibition of mouse recombinant iNOS expressed in Escherichia coli using L-arginine as substrate up to 180 seconds by hemoglobin capture assay

Q: For Cc1cc(N)nc(COCCOCc2cc(C)cc(N)n2)c1, which Ki (Nitric oxide synthase 3) is on record?
A: 5.26 µM

Q: And the Ki [1]?
A: 2.93 µM
